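GI50 marks 50% less growth. TGI: total growth inhibition.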
Experiments:
Assay in all cases: growth of human tumour cells (NCI), 384-well format
NCI-H23 lung = tested on: NCI-H23 lung
NCI-H322M lung = tested on: NCI-H322M lung
NCI-H460 NSCLC = tested on: NCI-H460 NSCLC
NCI-H522 lung = tested on: NCI-H522 lung
NCI/ADR-RES ovarian = tested on: NCI/ADR-RES ovarian
OVCAR-3 ovarian = tested on: OVCAR-3 ovarian
OVCAR-4 ovarian = tested on: OVCAR-4 ovarian
OVCAR-5 ovarian = tested on: OVCAR-5 ovarian
OVCAR-8 ovarian = tested on: OVCAR-8 ovarian
PC-3 prostate = tested on: PC-3 prostate
RPMI-8226 leukemia = tested on: RPMI-8226 leukemia
RXF 393 renal = tested on: RXF 393 renal
SF-268 CNS = tested on: SF-268 CNS
SF-295 CNS = tested on: SF-295 CNS
SF-539 CNS = tested on: SF-539 CNS
SK-MEL-28 melanoma = tested on: SK-MEL-28 melanoma
SK-MEL-5 melanoma = tested on: SK-MEL-5 melanoma
SK-OV-3 ovarian = tested on: SK-OV-3 ovarian
SN12C renal = tested on: SN12C renal
SNB-19 CNS = tested on: SNB-19 CNS
SNB-75 CNS = tested on: SNB-75 CNS
SR leukemia = tested on: SR leukemia
SW-620 colon = tested on: SW-620 colon
T-47D breast = tested on: T-47D breast
TK-10 renal = tested on: TK-10 renal
U251 glioblastoma = tested on: U251 glioblastoma
UACC-257 melanoma = tested on: UACC-257 melanoma
UACC-62 melanoma = tested on: UACC-62 melanoma
UO-31 renal = tested on: UO-31 renal

## CNC(=O)c1c(C)oc2cc(Oc3ncnc4cc(OC)c(OC)cc34)ccc12
NCI-H23 lung
  GI50: > 100 µM
  TGI: > 100 µM
NCI-H322M lung
  GI50: > 100 µM
  TGI: > 100 µM
NCI-H460 NSCLC
  GI50: > 100 µM
  TGI: > 100 µM
NCI-H522 lung
  GI50: > 100 µM
  TGI: > 100 µM
NCI/ADR-RES ovarian
  GI50: > 100 µM
  TGI: > 100 µM
OVCAR-3 ovarian
  GI50: > 100 µM
  TGI: > 100 µM
OVCAR-4 ovarian
  GI50: > 100 µM
  TGI: > 100 µM
OVCAR-5 ovarian
  GI50: > 100 µM
  TGI: > 100 µM
OVCAR-8 ovarian
  GI50: > 100 µM
  TGI: > 100 µM
PC-3 prostate
  GI50: > 100 µM
  TGI: > 100 µM
RPMI-8226 leukemia
  GI50: > 71.1 µM
  TGI: > 100 µM
RXF 393 renal
  GI50: > 21.9 µM
  TGI: > 100 µM
SF-268 CNS
  GI50: > 100 µM
  TGI: > 100 µM
SF-295 CNS
  GI50: > 100 µM
  TGI: > 100 µM
SF-539 CNS
  GI50: 10.2 µM
  TGI: > 100 µM
SK-MEL-28 melanoma
  GI50: > 100 µM
  TGI: > 100 µM
SK-MEL-5 melanoma
  GI50: > 100 µM
  TGI: > 100 µM
SK-OV-3 ovarian
  GI50: > 100 µM
  TGI: > 100 µM
SN12C renal
  GI50: > 100 µM
  TGI: > 100 µM
SNB-19 CNS
  GI50: > 100 µM
  TGI: > 100 µM
SNB-75 CNS
  GI50: 4.3 µM
  TGI: > 29.4 µM
SR leukemia
  GI50: > 61.5 µM
  TGI: > 100 µM
SW-620 colon
  GI50: > 100 µM
  TGI: > 100 µM
T-47D breast
  GI50: > 100 µM
  TGI: > 100 µM
TK-10 renal
  GI50: > 100 µM
  TGI: > 100 µM
U251 glioblastoma
  GI50: > 100 µM
  TGI: > 100 µM
UACC-257 melanoma
  GI50: > 100 µM
  TGI: > 100 µM
UACC-62 melanoma
  GI50: > 100 µM
  TGI: > 100 µM
UO-31 renal
  GI50: > 96.2 µM
  TGI: > 100 µM

Reference: PubChem BioAssay (NCI)
